This is an account of results in patent US20190275027A1 (priority 2018, published 2019).

Structures are written as SMILES. Several values for one entry are separate records, joined by “and”; a condition that tells them apart may be missing. Identical values can stand only once. Like-named read-outs stand apart in the source and are kept apart here.

Data set [1] has as its system wild type Ebola virus, Mayinga strain. Put plainly: microbe, parasite or virus in culture. The data set is classed as cell-based. The note with it: for IC50: Zaire ebolavirus, Huh-7, 24 h, read-out: EBOV IC50.
The test system of another data set is MARV. Put plainly: organism not typed. The data set is classed as cell-based, Marburg virus. The note with it: read-out: MARV IC50.
The nature of the next data set: physchem. The note with it: pH 7.4, aqueous buffer, kinetic from dmso stock.
In the next data set the test system is EBOV. Set-up: species or system murine. The note with it: mouse, in vivo.
Another data set deals with EBOV virus. On the set-up: species or system BALB/c mice. The note with it: mouse, in vivo.

As for `COc1cc2c(cc1OC)[C@@H](Cc1cccc(Oc3cccc(C[C@@H]4c5cc6c(cc5CCN4C)OCO6)c3)c1)N(C)CC2` [B3-36^R,R], the IC50 was 413 ± 51 nM in data set [1] and 495 ± 66 nM with MARV.
Consider `COc1ccc2c(c1)CCN(C)[C@@H]2Cc1ccc(Oc2ccc(C[C@@H]3c4ccc(OC)cc4CCN3C)cc2)cc1` [B4-14^RR], for which, in data set [1], the “EBOV activity (in words)” value is “good activity”.
As to `COc1cc2c(cc1OC)[C@@H](Cc1ccc(Oc3ccc(C[C@@H]4c5cc(OC)c(OC)cc5CCN4C)cc3OC)c(OC)c1)N(C)CC2` [Compound 1], the solubility in “physchem” is over 100 µM. For the same compound, in data set [1], the IC50 came to 730 ± 60 nM. Further, in the data set with EBOV, the “Efficacy (in words)” value is “good efficacy”; the Survival is 4/7 and 0/7. The half-inhibitory concentration (IC50) in the data set on MARV was 506 ± 87 nM. Further, in the data set with EBOV virus, the “% Survival” value is 100%; the “Efficacy against Ebola virus challenge (in words)” value was “statistically significant improvement when compared to TETN and saline”; the Survival is 7/7.
With `COc1cc2c(cc1OC)[C@@H](Cc1ccc(Oc3cc(C[C@@H]4c5cc(OC)c(OC)cc5CCN4C)ccc3OC)c(OC)c1)N(C)CC2` [Compound 2], the solubility in the data set “physchem” is over 100 µM. Besides, the IC50 in data set [1] stood at 1050 ± 90 nM. Moreover, in the data set with EBOV, the “% Survival” value was 57% and 43%; the “Efficacy (in words)” value is given as “good efficacy”; the Survival was 4/7 and 3/7. Besides, the “Efficacy (in words)” value in the data set with EBOV (5 mg/kg) is on record as “moderate efficacy”. The concentration for half-maximal inhibition (IC50) with MARV stood at 1240 ± 269 nM. Further, in the data set on EBOV virus, the “% Survival” value turned out to be 100%; the “Efficacy against Ebola virus challenge (in words)” value is “statistically significant improvement when compared to TETN and saline”; the Survival is listed as 7/7.
Consider `COc1cc2c(cc1OC)[C@@H](Cc1ccc(OC)c(Oc3cc(C[C@@H]4c5cc(OC)c(OC)cc5CCN4C)ccc3OC)c1)N(C)CC2` [Compound 3], for which the solubility in “physchem” is over 100 µM. In data set [1], the concentration for half-maximal inhibition (IC50) came to 1220 ± 119 nM. In addition, the IC50 in the data set with MARV is 1100 ± 222 nM. In the data set on EBOV virus, the “% Survival” value worked out at 71%, the “Efficacy against Ebola virus challenge (in words)” value is reported as “good efficacy” and the Survival is recorded as 5/7.
With `COc1cc2c(cc1OC)[C@@H](Cc1ccc(Oc3ccc(C[C@@H]4c5cc(OC)c(OC)cc5CCN4C)cc3OC)nc1)N(C)CC2` [Compound 4], the solubility in “physchem” was over 100 µM. Also, the IC50 in data set [1] turned out to be 446 ± 57 nM. In addition, in the data set with MARV, the half-maximal inhibitory concentration (IC50) was 566 ± 108 nM. Further, in the data set with EBOV virus, the “% Survival” value is recorded as 71%, the “Efficacy against Ebola virus challenge (in words)” value was “good efficacy” and the Survival is listed as 5/7.
Consider `COc1ccc2c(c1)CCN(C)[C@@H]2Cc1ccc(Oc2ccc(C[C@@H]3c4cc(OC)c(OC)cc4CCN3C)cn2)c(OC)c1` [Compound 5], for which the solubility in “physchem” was over 100 µM. Also, the values for the IC50 (in data set [1]; with MARV) were 505 ± 32 nM and 414 ± 70 nM, respectively.
Regarding `COc1ccc2c(c1)CCN(C(C)C)[C@@H]2Cc1ccc(Oc2ccc(C[C@@H]3c4ccc(OC)cc4CCN3C(C)C)cc2)cc1` [Compound 41], the IC50 turned out to be 249 ± 19 nM in data set [1] and 188 ± 40 nM in the data set with MARV.
`COc1ccc2c(c1)CCN(Cc1ccccc1)[C@@H]2Cc1ccc(Oc2ccc(C[C@@H]3c4ccc(OC)cc4CCN3Cc3ccccc3)cc2)cc1` [Compound 42]: the IC50 (in data set [1]; in the data set on MARV) was over 1000 nM each time.
On to `COc1cc(C[C@@H]2c3cc4c(cc3CCN2C)OCO4)ccc1Oc1ccc(C[C@@H]2c3cc4c(cc3CCN2C)OCO4)cc1OC` [Compound 45], for which the IC50 in data set [1] is 372 ± 34 nM; with MARV, 339 ± 56 nM.
Consider `COc1cc2c(cc1OC)[C@@H](Cc1ccc(Oc3cccc(C[C@@H]4c5cc(OC)c(OC)cc5CCN4C)c3)nc1)N(C)CC2` [Compound 48], for which the IC50 turned out to be 875 ± 110 nM in data set [1] and 1490 ± 320 nM in the data set with MARV.
With `COc1cc2c(cc1OC)[C@@H](Cc1cccc(Oc3cc(C[C@@H]4c5cc(OC)c(OC)cc5CCN4C)ccc3OC)c1)N(C)CC2` [Compound 51], the IC50 worked out at 1090 ± 72 nM in data set [1] and 1180 ± 179 nM in the data set with MARV.
Taken in the same sequence, the figures for `COc1ccc(C[C@@H]2c3cc4c(cc3CCN2C)OCO4)cc1Oc1cc(C[C@@H]2c3cc4c(cc3CCN2C)OCO4)ccc1OC` [Compound 52] were 615 ± 40 nM and 585 ± 154 nM.
With `COc1ccc2c(c1)CCN(C)[C@@H]2Cc1cccc(Oc2cc(C[C@@H]3c4ccc(OC)cc4CCN3C)ccc2OC)c1` [Compound B3-12], the results for the IC50 (in data set [1]; in the data set on MARV) were 1110 ± 179 nM and 839 ± 158 nM, respectively.
On to `CN1CCc2cc3c(cc2[C@H]1Cc1cccc(Oc2cccc(C[C@@H]4c5cc6c(cc5CCN4C)OCO6)c2)c1)OCO3` [Compound B3-35], for which the figures for the IC50 (in data set [1]; with MARV) were 789 ± 97 nM and 537 ± 60 nM, respectively.
Taken in the same sequence, the figures for `COc1ccc2c(c1)CCN(C)[C@@H]2Cc1ccc(OC)c(Oc2cc(C[C@@H]3c4ccc(OC)cc4CCN3C)ccc2OC)c1` [Compound B3-42] were 617 ± 45 nM and 418 ± 47 nM.
Regarding `COc1ccc2c(c1)CCN(C)[C@@H]2Cc1ccc(Oc2ccc(C[C@@H]3c4ccc(OC)cc4CCN3C)cc2OC)cc1` [Compound B4-17], the half-inhibitory concentration (IC50) was determined as 134 ± 16 nM in data set [1] and 133 ± 26 nM in the data set on MARV.
In the case of `COc1ccc2c(c1)CCN(C)[C@@H]2Cc1cccc(Oc2ccc(C[C@@H]3c4cc(OC)c(OC)cc4CCN3C)cc2)c1` [Compound B4-21], the half-maximal inhibitory concentration (IC50) came out at 424 ± 82 nM in data set [1] and 467 ± 93 nM with MARV.
For the compound `COc1ccc2c(c1)CCN(C)[C@@H]2Cc1ccc(Oc2ccc(C[C@@H]3c4cc(OC)c(OC)cc4CCN3C)cc2)cc1` [Compound B4-24], the half-maximal inhibitory concentration (IC50) in data set [1] came to 125 ± 26 nM; in the data set on MARV it was 130 ± 49 nM.
For `COc1cc2c(cc1OC)[C@@H](Cc1ccc(Oc3cccc(C[C@@H]4c5cc(OC)c(OC)cc5CCN4C)c3)cc1)N(C)CC2` [Compound B4-26], in that order: 530 ± 81 nM and 770 ± 89 nM.
Taken in the same sequence, the figures for `COc1ccc2c(c1)CCN(C)[C@@H]2Cc1cccc(Oc2ccc(C[C@@H]3c4cc5c(cc4CCN3C)OCO5)cc2)c1` [Compound B4-31] were 775 ± 156 nM and 1180 ± 105 nM.
On to `COc1ccc2c(c1)CCN(C)[C@@H]2Cc1ccc(Oc2ccc(C[C@@H]3c4cc5c(cc4CCN3C)OCO5)cc2)cc1` [Compound B4-34], for which the values for the IC50 (in data set [1]; in the data set with MARV) were 65 ± 16 nM and 148 ± 48 nM, respectively.
For `COc1cc2c(cc1OC)[C@@H](Cc1cccc(Oc3ccc(C[C@@H]4c5cc6c(cc5CCN4C)OCO6)cc3)c1)N(C)CC2` [Compound B4-36], in that order: 415 ± 43 nM and 487 ± 88 nM.
For the compound `COc1ccc2cc1Oc1ccc(cc1)C[C@H]1c3cc(c(OC)cc3CCN1C)Oc1c(OC)c(OC)cc3c1[C@H](C2)N(C)CC3` [TETN, tetrandrine, reference compound], in the data set “physchem”, the solubility is over 100 µM. The IC50 in data set [1] was determined as 292 ± 31 nM. Besides, the IC50 with MARV amounted to 370 ± 95 nM. Besides, in the data set with EBOV virus, the “% Survival” value worked out at 57% and the Survival was 4/7.

In general, IC50 refers to the midpoint of a concentration-inhibition curve. By solubility is commonly meant the concentration that dissolves in the medium under given conditions. A lower solubility goes with a poorly soluble substance.
